Measured values taken from patent US11739064B2, “HDAC inhibitors and therapeutic methods using the same” (THE BOARD OF TRUSTEES OF THE UNIVERSITY OF ILLINOIS, priority 2015, dated 2023).

Tests used:
Human HDAC6 = molecular target: T1, Human HDAC6 (Homo sapiens, UniProt Q9UBN7); assay: In vitro HDAC inhibition assay, HDAC6; assay type: biochemical; conditions: read-out: HDAC isoform IC50, HDAC6
T1 construct: Full length with N-terminal GST tag, MW=159 kDa; GST (N); host or cells: baculovirus expression system, Sf9 cells
T1 sequence (Q9UBN7 1-1215): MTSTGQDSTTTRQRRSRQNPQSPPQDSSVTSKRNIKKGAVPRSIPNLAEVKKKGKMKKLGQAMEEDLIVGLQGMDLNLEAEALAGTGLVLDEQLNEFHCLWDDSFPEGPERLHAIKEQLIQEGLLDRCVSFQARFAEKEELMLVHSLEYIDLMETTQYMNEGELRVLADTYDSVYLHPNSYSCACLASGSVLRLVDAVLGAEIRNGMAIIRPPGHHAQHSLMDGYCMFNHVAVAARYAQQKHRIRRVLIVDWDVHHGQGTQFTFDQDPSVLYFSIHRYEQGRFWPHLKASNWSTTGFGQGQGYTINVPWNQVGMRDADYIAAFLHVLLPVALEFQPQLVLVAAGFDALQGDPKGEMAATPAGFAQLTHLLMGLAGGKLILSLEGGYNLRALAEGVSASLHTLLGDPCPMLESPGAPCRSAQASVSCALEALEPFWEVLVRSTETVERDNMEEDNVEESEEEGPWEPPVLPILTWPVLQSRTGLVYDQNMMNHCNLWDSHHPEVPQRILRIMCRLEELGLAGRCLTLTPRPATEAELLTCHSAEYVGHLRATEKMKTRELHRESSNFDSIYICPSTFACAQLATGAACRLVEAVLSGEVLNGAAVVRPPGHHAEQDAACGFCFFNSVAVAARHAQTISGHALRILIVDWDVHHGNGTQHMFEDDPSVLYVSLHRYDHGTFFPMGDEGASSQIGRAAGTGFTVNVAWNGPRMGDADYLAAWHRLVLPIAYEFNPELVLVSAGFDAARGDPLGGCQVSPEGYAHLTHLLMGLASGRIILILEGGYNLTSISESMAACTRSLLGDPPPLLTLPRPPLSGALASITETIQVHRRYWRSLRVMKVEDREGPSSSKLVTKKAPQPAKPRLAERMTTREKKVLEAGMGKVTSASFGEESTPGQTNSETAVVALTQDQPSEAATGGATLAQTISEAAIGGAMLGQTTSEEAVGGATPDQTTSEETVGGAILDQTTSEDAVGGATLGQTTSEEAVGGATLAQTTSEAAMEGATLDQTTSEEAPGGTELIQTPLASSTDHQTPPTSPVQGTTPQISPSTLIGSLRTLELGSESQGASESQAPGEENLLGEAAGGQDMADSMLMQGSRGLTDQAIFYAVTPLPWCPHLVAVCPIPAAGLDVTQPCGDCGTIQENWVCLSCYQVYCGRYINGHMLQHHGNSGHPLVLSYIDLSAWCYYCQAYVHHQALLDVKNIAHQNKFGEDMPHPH

L3.6pl = assay: In vitro growth inhibition (GI), MTS cell proliferation assay (Table 5), L3.6pl; assay type: cell-based; conditions: Homo sapiens, 72 hours post-treatment
BxPC3 = assay: In vitro growth inhibition (GI), MTS cell proliferation assay (Table 5), BxPC3; assay type: cell-based; conditions: Homo sapiens, BXPC-3, 72 hours post-treatment
HDAC10 = molecular target: T2, HDAC10 (Homo sapiens, UniProt Q969S8); assay: In vitro HDAC inhibition assay, HDAC10; assay type: biochemical; conditions: NI = No inhibition at a concentration of 50 pM (footnote b); read-out: HDAC isoform IC50, HDAC10
T2 sequence (Q969S8 1-669): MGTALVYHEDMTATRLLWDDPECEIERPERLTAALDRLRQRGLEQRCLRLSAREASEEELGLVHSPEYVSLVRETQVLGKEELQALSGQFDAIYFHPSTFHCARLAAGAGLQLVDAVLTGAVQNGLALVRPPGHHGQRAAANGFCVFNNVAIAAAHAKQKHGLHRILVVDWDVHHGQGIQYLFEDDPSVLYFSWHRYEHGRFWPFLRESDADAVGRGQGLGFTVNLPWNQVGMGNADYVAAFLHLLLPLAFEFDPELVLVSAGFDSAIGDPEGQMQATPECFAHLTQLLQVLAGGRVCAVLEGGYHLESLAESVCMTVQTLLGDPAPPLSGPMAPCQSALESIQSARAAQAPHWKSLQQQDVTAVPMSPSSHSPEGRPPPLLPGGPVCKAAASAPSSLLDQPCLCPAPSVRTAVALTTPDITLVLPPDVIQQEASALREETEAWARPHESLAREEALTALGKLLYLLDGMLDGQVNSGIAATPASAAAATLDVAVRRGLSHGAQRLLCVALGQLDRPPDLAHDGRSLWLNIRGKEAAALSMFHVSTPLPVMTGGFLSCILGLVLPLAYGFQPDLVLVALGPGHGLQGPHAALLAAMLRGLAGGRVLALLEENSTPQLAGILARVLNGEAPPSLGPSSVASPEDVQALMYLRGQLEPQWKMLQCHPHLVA

HDAC2 = HDAC2 (Homo sapiens, UniProt Q92769); assay: In vitro HDAC inhibition assay, HDAC2; assay type: biochemical; conditions: NI = No inhibition at a concentration of 50 pM (footnote b); read-out: HDAC isoform IC50, HDAC2
HDAC3/NcoR2 complex = HDAC3/NcoR2 complex (Homo sapiens, UniProt O15379); assay: In vitro HDAC inhibition assay, HDAC3; assay type: biochemical; conditions: NI = No inhibition at a concentration of 50 pM (footnote b); read-out: HDAC isoform IC50, HDAC3
Human HDAC1 = Human HDAC1 (Homo sapiens, UniProt Q13547); assay: In vitro HDAC inhibition assay, HDAC1; conditions: read-out: HDAC isoform IC50, HDAC1; NI = No inhibition at a concentration of 50 pM (footnote b)
PANC1 cells [1] = assay: Cell cycle analysis; assay type: cell-based; conditions: FIG. 1B, accumulation in the G2/M phase
Description: This finding is consistent with cell cycle data, which indicate that treatment of pancreatic cancer cells with a present HDACIs results in an accumulation of cells in the G2/M phase of the cell cycle.

acetylated alpha-tubulin = assay: Accumulation of acetylated alpha-tubulin in pancreatic cancer cells; assay type: cell-based; conditions: FIG. 1A
Description: Cell cycle and inhibition of alpha-tubulin deacetylation.

PANC1 cells [2] = assay: Scratch-wound cell migration assay; assay type: cell-based; parameters: key to Inhibition of cell migration, 24 h / Inhibition of cell migration, 48 h: Level of inhibition (high to low): +++, ++ or +; Level of inhibition (high to low): +++, ++ or +; Level of inhibition (high to low): +++, ++ or +; no inhibition: −; conditions: for Inhibition of cell migration, 24 h: PANC1, 24 h post wounding; for Inhibition of cell migration, 48 h: PANC1, 48 h post wounding
Protocol: FIG. 2 contains photographs of PANC1 cells treated with present compounds 9 and 6 taken 24 and 48 hours (post wounding) after a scratch was made through a confluent layer of cells; and
PANC1 Cell migration and effect on T and NK Cells. The effect of HDAC6 inhibition on cell migration and cellular cytotoxicity was evaluated. […] Thus, these HDAC6-selective inhibitors could function well to block metastasis. However, in contrast to the effect observed on cell migration, none of the compounds tested affected CD8+ T cell or natural killer (NK) cell-mediated cytotoxicity, despite the ability of the compounds to substantially increase the levels of acetyl-tubulin in these cell lines.

[3] = tested on: L3.6pl pancreatic cancer cells; assay: Apoptosis by Hoechst staining and PARP cleavage; assay type: cell-based; conditions: 10 μM, 24 hours after the initiation of treatment
Protocol: FIG. 3 contains photographs and Western immunoblots showing that HDAC inhibitors of present invention induce apoptosis on L3.6p1 pancreatic cancer cells. L3.6p1 pancreatic cancer cells were treated with 10 μM of compound 1, 2 or 4 for 24 hrs as indicated. Cells were collected and processed to Hoechst staining (upper panel) and cell lysates were prepared for Western immunoblotting (lower panel). 50 μg of proteins were separated by SDS-PAGE, transferred to PVDF membrane, and immunoblotted as indicated.

PANC1 = assay: In vitro growth inhibition of pancreatic cancer cell lines (Table 3), PANC1; assay type: cell-based; conditions: Homo sapiens, PANC-1; 72 hours post-treatment, cell viability
Protocol: (§1) In Vitro growth inhibition of pancreatic cancer cell lines. Four of the present HDACIs were analyzed in the [3-(4,5-dimethylthiazol-2-yl)]-2,5-diphenyltetrazolium bromide (MTT) assay in four pancreatic cancer cell lines (Table 3).

Panc 04.03 = assay: In vitro growth inhibition of pancreatic cancer cell lines (Table 3), Panc 04.03; assay type: cell-based; conditions: Homo sapiens, 72 hours post-treatment, cell viability
Protocol: as §1

BxPC-3 = assay: In vitro growth inhibition of pancreatic cancer cell lines (Table 3), BxPC-3; assay type: cell-based; conditions: Homo sapiens, 72 hours post-treatment, cell viability
Protocol: as §1

Mia PaCa-2 = assay: In vitro growth inhibition of pancreatic cancer cell lines (Table 3), Mia PaCa-2; assay type: cell-based; conditions: Homo sapiens, 72 hours post-treatment, cell viability
Protocol: as §1

Chain of HDAC3/NcoR2 complex (O15379 whole entry, canonical isoform): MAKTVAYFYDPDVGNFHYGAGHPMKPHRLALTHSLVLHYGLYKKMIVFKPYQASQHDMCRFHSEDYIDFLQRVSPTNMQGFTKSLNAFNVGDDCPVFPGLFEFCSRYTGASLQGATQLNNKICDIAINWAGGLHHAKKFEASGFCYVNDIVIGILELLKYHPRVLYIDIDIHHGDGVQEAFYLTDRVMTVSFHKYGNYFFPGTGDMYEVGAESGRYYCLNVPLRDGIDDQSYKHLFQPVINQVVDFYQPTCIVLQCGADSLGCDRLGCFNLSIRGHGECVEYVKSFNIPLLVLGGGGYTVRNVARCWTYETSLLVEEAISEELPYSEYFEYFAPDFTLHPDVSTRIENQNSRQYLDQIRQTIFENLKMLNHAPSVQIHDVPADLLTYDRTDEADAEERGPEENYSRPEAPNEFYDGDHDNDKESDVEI
Chain of HDAC3/NcoR2 complex (Q9Y618 395-489 partner limits assumed): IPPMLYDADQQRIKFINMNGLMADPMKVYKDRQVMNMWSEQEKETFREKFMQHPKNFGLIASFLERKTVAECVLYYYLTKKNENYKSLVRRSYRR
Chain of Human HDAC1 (Q13547 whole entry, canonical isoform): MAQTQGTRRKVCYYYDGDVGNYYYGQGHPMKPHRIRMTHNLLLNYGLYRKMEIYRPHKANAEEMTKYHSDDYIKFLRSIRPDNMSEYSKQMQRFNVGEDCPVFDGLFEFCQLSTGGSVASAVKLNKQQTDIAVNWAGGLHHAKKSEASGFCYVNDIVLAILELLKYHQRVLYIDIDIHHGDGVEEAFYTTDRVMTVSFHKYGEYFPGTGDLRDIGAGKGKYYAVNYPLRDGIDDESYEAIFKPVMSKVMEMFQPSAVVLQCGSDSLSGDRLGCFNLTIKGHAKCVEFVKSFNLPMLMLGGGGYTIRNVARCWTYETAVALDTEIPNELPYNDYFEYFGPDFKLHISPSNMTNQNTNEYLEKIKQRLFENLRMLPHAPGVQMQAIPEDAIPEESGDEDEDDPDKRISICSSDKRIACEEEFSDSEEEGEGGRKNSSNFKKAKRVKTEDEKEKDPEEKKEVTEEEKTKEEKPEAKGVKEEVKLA
Chain of HDAC2 (Q92769 whole entry, canonical isoform): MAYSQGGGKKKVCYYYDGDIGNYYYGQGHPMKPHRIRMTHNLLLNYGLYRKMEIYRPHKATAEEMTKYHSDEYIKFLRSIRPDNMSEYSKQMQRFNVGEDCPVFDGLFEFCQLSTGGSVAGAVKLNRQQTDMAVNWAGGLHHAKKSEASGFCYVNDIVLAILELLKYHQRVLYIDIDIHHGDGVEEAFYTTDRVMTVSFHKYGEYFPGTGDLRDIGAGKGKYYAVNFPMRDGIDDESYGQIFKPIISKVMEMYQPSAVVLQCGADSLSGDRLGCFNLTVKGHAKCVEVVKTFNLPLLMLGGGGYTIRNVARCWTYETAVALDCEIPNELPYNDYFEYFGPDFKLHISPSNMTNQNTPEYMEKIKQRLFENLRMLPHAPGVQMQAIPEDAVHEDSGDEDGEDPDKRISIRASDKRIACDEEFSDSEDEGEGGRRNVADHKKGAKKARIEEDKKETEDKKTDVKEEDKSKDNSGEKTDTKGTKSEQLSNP

IC50 (Human HDAC6) | GI50 (BxPC3) | IC50 (HDAC10) | IC50 (HDAC2) | IC50 (HDAC3/NcoR2 complex) | IC50 (Human HDAC1) | IC50 (PANC1) | IC50 (Panc 04.03) | IC50 (BxPC-3) | IC50 (Mia PaCa-2) | SMILES | GI50 (L3.6pl) | Cell cycle arrest (PANC1 cells [1]) | Accumulation of acetylated alpha-tubulin (acetylated alpha-tubulin) | Inhibition of cell migration, 24 h (PANC1 cells [2]) | Inhibition of cell migration, 48 h (PANC1 cells [2]) | Induction of apoptosis (Hoechst staining and PARP cleavage) [3]
0.64 nM | 7800 nM | 2730 nM | 1380 nM | 789 nM | 444 nM |  |  |  |  | CC(C)(C)OC(=O)Nc1cccc(-c2cc(C(=O)NCc3ccc(C(=O)NO)cc3)no2)c1 [Compound 14, {3-[3-(4-Hydroxycarbamoyl-benzylcarbamoyl)-isoxazol-5-yl]-phenyl}-carbamic acid tert-butyl ester] | > 50000 nM | cell cycle arrest | accumulation of acetylated alpha-tubulin | − | − | 
0.33 nM | 8100 nM | 3160 nM | 1900 nM | 135 nM | 436 nM |  |  |  |  | CC(C)(C)OC(=O)Nc1ccc(-c2cc(C(=O)NCc3ccc(C(=O)NO)cc3)no2)cc1 [Compound 15, {4-[3-(4-Hydroxycarbamoyl-benzylcarbamoyl)-isoxazol-5-yl]-phenyl}-carbamic acid tert-butyl ester] | 2000 nM | cell cycle arrest | accumulation of acetylated alpha-tubulin |  |  | 
0.6 nM | 2400 nM | 22200 nM | 1370 nM | 479 nM | 495 nM |  |  |  |  | O=C(NO)c1ccc(CNC(=O)c2cc(Cn3c4ccccc4c4ccccc43)on2)cc1 [Compound 18, 5-Carbazol-9-ylmethyl-isoxazole-3-carboxylic acid 4-hydroxycarbamoyl-benzylamide] | 1300 nM | cell cycle arrest | accumulation of acetylated alpha-tubulin | + | − | 

Second part, the compound before the results:

SMILES | IC50 (Human HDAC6) | GI50 (BxPC3) | IC50 (HDAC10) | IC50 (HDAC2) | IC50 (HDAC3/NcoR2 complex) | IC50 (Human HDAC1) | IC50 (PANC1) | IC50 (Panc 04.03) | IC50 (BxPC-3) | IC50 (Mia PaCa-2) | GI50 (L3.6pl) | Cell cycle arrest (PANC1 cells [1]) | Accumulation of acetylated alpha-tubulin (acetylated alpha-tubulin) | Inhibition of cell migration, 24 h (PANC1 cells [2]) | Inhibition of cell migration, 48 h (PANC1 cells [2]) | Induction of apoptosis (Hoechst staining and PARP cleavage) [3]
CCOC(=O)Nc1ccc(-c2csc(NC(=O)CCCc3cc(C(=O)NO)no3)n2)cc1 [Compound 4, (4-{2-[4-(3-Hydroxycarbamoyl-isoxazol-5-yl)-butyrylamino]-thiazol-4-yl}-phenyl)-carbamic acid ethyl ester] | 48.9 nM | 1700 nM | 323 nM | 834 nM | 354 nM | 200 nM | 11000 nM | 13500 nM | 15200 nM | 1900 nM | 1700 nM |  |  |  |  | effectively induced apoptosis
O=C(CCCc1cc(C(=O)NO)no1)Nc1nc(-c2ccccc2)cs1 [Compound 2, 5-[3-(4-Phenyl-thiazol-2-ylcarbamoyl)-propyl]-isoxazole-3-carboxylic acid hydroxyamide] | 81.8 nM | 2300 nM | 854 nM | 1220 nM | 934 nM | 351 nM | 2500 nM | 48400 nM | 20800 nM | 1300 nM | 700 nM |  |  |  |  | effectively induced apoptosis
O=C(CCc1cc(C(=O)NO)no1)Nc1nc(-c2ccccc2)cs1 [Compound 1, 5-[2-(4-Phenyl-thiazol-2-ylcarbamoyl)-ethyl]-isoxazole-3-carboxylic acid hydroxyl amide] | 31 nM | 1500 nM | 407 nM | 1140 nM | 320 nM | 307 nM |  |  | 1000 nM |  | 1300 nM |  |  |  |  | effectively induced apoptosis
